Patent US20030077653A1, “Method for the identification of active site protease inactivators” (The University of Georgia Research Foundation, Inc., priority 2000, published 2003)
Residues, ends and D or L forms follow the SMILES beside them. *: point of attachment. AFC = O=c1cc(C(F)(F)F)c2ccc(N*)cc2o1; Cbz = O=C(OCc1ccccc1)*; Boc = CC(C)(C)OC(=O)*

Experiments:
Format in all cases: biochemical
[1] = test system: purified Taenia solium cysteine protease; test: Screen of AFC-linked synthetic substrates for cleavage (Step II); settings: pH 4.9, 18 h, 37° C
Protocol: In this step, the most efficacious substrate for detection of the cysteine protease (high Kcat substrate) was determined in vitro along with those substrates which were not well cleaved (low kcat substrates). From this point forth, the following conditions refer to all assays: “assay buffer” refers to 0.4 M Citrate, pH 4.9 (the pH optima of the protease). Incubation time was 18 hours at 37° C. These conditions were determined by our preliminary data to be best for kinetic evaluation of the protease. […] The experiments were conducted in […] Borosilicate mini-culture tubes (Fisher Scientific), and a fluorometer (Turner) was employed for detection of AFC cleavage.
Approximately 1 ug (or a proteolytically detectable amount) of the purified target cysteine protease was incubated individually, with 1 μg of each of the available substrates in 500 μL of assay buffer. During this setup, the substrate was pre-incubated in the assay buffer for a short period of time (20 minutes) in order to reach an equilibrated status before the addition of the protease. Cleavage assessments were based upon the property of the protease to cleave synthetic peptide substrates linked at the C-terminus to 7-Amino-4-Trifluoromethyl Coumarin (AFC) as previously described. AFC linked tripeptides, dipeptides, and monopeptides, (with a variety of permutations at P3-P1) were available from Enzyme Systems Products (Livermore, CA), and were used as the source of the subset. Following incubation of enzyme preparations overnight (18 h, 37 ° C.) with peptide in assay buffer (Citrate, pH 4.9, supplemented with 0.01 M cysteine), free AFC concentrations were measured fluorometrically (excitation […]). The proteolytic cleavage released the AFC group, which was measurable as a free molecule by a standard fluorometer and converted into molar quantities, based upon a previously established standard curve. The simplicity of AFC detection by the fluorometer was a key factor which quickened and simplified the procedures.
In the assay, 1 ug of the purified Taenia cysteine protease was added to a saturating amount of Z-Phe-Arg-AFC (4×10^−5 M) in assay buffer. The experiment was conducted in triplicate and repeated at least 5 times until we were certain that variability in AFC cleavage was not statistically significant.
Vmax was calculated for the cleavage of substrates by the purified target protease and Vmax was calculated for substrates cleaved by the crude mix protease using conventional kinetic modeling calculations already described in the art.

[2] = test system: purified Taenia solium cysteine protease; test: Competitor assay: vehicle inhibition of cleavage of high Vmax AFC substrate cocktails (Step III); settings: purified protease; P = inhibition with first (1.4%) cocktail, M = inhibition with last (7.4%) cocktail
Protocol: (We employed “Vmax” here although Kcat could also be used). Due to the lower number of substrates, a percentage was not chosen for the “BOTTOM %” substrates. Alternately, all substrates which were not cleaved as determined by a value of 10 μM/hr or less, were chosen to be tested in this step for competitive ability. From this point forth, the term “vehicle” will represent low Vmax substrates that were capable of inhibiting cleavage of the percent cocktails. In this instance, we tested for “vehicles” which inhibited cleavage of the TOP 1.4% cocktail (they were delivered into the active site). Based upon our results from Step II, the top 1.4% cocktail was composed of Z-Phe-Arg-AFC, the highest cleaved substrate.
The experiment began with a competitor test between the noncleaved low Vmax substrates and the highest Vmax substrate, Z-Phe-Arg-AFC. Concentrations were varied between the low Vmax substrate and Z-Phe-Arg-AFC, as described above under “refinement of assay” until a relative inhibition profile was obtained.
The mixture was allowed to equilibrate for a period of 30 minutes. Finally, active purified enzyme was added to the tubes at a concentration which was always 50 times less than the concentration of the high and low Vmax substrates, in order to insure saturation conditions. This concentration varied from purification to purification and the amount added depended upon the yield and specific activity of the purified protease.
Positive controls were set up similarly as described for test controls, except that solvent was added in substitution for the low Vmax substrate (in a volume equal to the low Vmax volume addition). All of the substrates could be dissolved in dimethylsulfoxide (DMSO), and therefore, this was the solvent of choice. Negative controls were set up by adding the low Vmax and the high Vmax substrate in a tube without the protease. All potential non-proteolytic induced liberation of AFC was therefore controlled for in this tube (a feature which also insured stability of the AFC substrates, since these substrates will freely liberate AFC when unstable). A tube set will be established for this negative control.
All controls were set up in triplicate, and experiments repeated a minimum of five times. The assays were incubated at 37° C., for 18 hours overnight.
Percent inhibition was calculated as: [formula]
A 2.9% cocktail of the high Vmax substrates was made. This was composed of Z-FR-AFC and the second most cleaved substrate, Z-FAR-AFC. The vehicles promoted from the initial screenings above were again tested for competitive inhibition ability with the new cocktails. Their concentrations were set identically to those which were “fixed” in the previous protocols. […]

Taenia solium crude mix = test: Competitor assay with crude mix as source of the protease (Step III)
Protocol: In order to prepare the Taenia solium “crude mix” , dry frozen Taenia solium cysts were obtained from 6-12 month old cysticercotic pigs from villages in an endemic area of porcine cysticercosis in Mexico. Metacestodes were carefully dissected from the parasitized tissues, washed three times with PBS, and lyophilized. Parasite extracts were prepared by suspending 0.1 grams of dry frozen cysts in 10 ml of extraction buffer (0.4 M citrate, pH 4.9). The cysts were vortexed for three five-minute intervals with intermittent incubations (5 min) at 4 ° C. Particulate material was removed by centrifugation (20,000 x g, 120 min) and the resulting soluble fraction filtered ([…]). In assay buffers, the detectable amount of the crude mix, as described above, was employed and incubated with the target substrates.
One of the most intriguing findings in this experiment was that a highly similar inhibition pattern for the competitor assay was noted when the crude mix was employed as the source of the target protease. Although there were some variations in the effects of inhibitor dilution, the most highly ranked vehicles remained inhibitory consistently in comparison to the profile with the target protease. The relative profile and composition of the top tiers of vehicles was identical. Z-LLL-AFC, Z-LLY-AFC, Mu-LY-AFC, Boc-VPR-AFC, Z-SY-AFC, Z-RR-AFC, Z-FLF-AFC, Z-LGR-AFC consistently presented as the top eight vehicles (FIG. 5b), respectively, based upon their V values (Table 2). […] It was notable that the three vehicles had very similar V values. […] As was mentioned, this vehicle along with Z-LLL-AFC and Z-LLY-AFC, were consistently the most inhibitory vehicles. The V values of the most inhibitory vehicle series are shown below in Table 2. Again, a clear break between the first and second tier vehicles could be noted with the V value.

Row | SMILES | cleavage as substrate (Vmax) [1] | V Value (vehicle inhibition quotient, V=P*M) [2] | V Value (vehicle inhibition quotient, V=P*M) (Taenia solium crude mix)
1 | CC(C)[C@H](NC(=O)OC(C)(C)C)C(=O)N1CCC[C@H]1C(=O)N[C@@H](CCCNC(=N)N)C(=O)Nc1ccc2c(C(F)(F)F)cc(=O)oc2c1 [B-VPR-AFC, Boc-Val-Pro-Arg-AFC] (Boc-Val-Pro-Arg-{AFC}) | noncleavable | – | –
2 | CC(C)C[C@H](NC(=O)[C@H](Cc1ccccc1)NC(=O)OCc1ccccc1)C(=O)N[C@@H](Cc1ccccc1)C(=O)Nc1ccc2c(C(F)(F)F)cc(=O)oc2c1 [Z-FLF-AFC] (Cbz-Phe-Leu-Phe-{AFC}) | – | 0.100 | 0.10
3 | NC(N)=NCCC[C@H](NC(=O)OCc1ccccc1)C(=O)N[C@@H](CCCN=C(N)N)C(=O)Nc1ccc2c(C(F)(F)F)cc(=O)oc2c1 [Z-RR-AFC] (Cbz-Arg-Arg-{AFC}) | – | – | 0.09
4 | CC(C)C[C@H](NC(=O)OCc1ccccc1)C(=O)NCC(=O)N[C@@H](CCCNC(=N)N)C(=O)Nc1ccc2c(C(F)(F)F)cc(=O)oc2c1 [Z-LGR-AFC, Z-Leu-Gly-Arg-AFC] (Cbz-Leu-Gly-Arg-{AFC}) | noncleavable | – | –
5 | NC(N)=NCCCC(NC(=O)C(Cc1ccccc1)NC(=O)OCc1ccccc1)C(=O)Nc1ccc2c(C(F)(F)F)cc(=O)oc2c1 (stereo not drawn) [Z-Phe-Arg-AFC] (Cbz-Phe-Arg-{AFC}; configuration not given here) | highest Vmax | – | –
6 | O=C(N[C@@H](CO)C(=O)N[C@@H](Cc1ccc(O)cc1)C(=O)Nc1ccc2c(C(F)(F)F)cc(=O)oc2c1)OCc1ccccc1 [Z-SY-AFC] (Cbz-Ser-Tyr-{AFC}) | – | 0.090 | 0.09
7 | CC(C)C[C@H](NC(=O)OC(C)(C)C)C(=O)NCC(=O)N[C@@H](CCCNC(=N)N)C(=O)Nc1ccc2c(C(F)(F)F)cc(=O)oc2c1 [B-LGR-AFC] (Boc-Leu-Gly-Arg-{AFC}) | – | 0.07 | 0.02
